Reference: US20090209474A1, “NOVEL USES FOR DRUGS TARGETING GLUTAMINE SYNTHETASE” (NEWTHERA, priority 2005, published 2009)
“Also recorded” adds a separate entry of the source. Where two headings read alike, the source gives them in different places.

Legend:
GS [1] = target: T1, GS (Rattus norvegicus, UniProt P09606); conditions: GF 1 mg/kg, tianeptine 10 mg/kg, methyprednisolone 5 mg/kg i.p.
purified sheep brain GS [2] = assay: Purified sheep brain GS activity (Meister's method, gamma-glutamylhydroxamate formation); format: biochemical; conditions: for effect on GS subunit (monomer) activity: in presence of 2β-ME (DTT for tianeptine)
rats [3] = conditions: rat, in vivo; cited from earlier work
GS [4] = target: T1, GS; format: in vivo, Wistar rats; parameters: Wistar rat brain homogenates were incubated with naftazone; from tissue; host or cells: Wistar rat brain homogenate or membranes; in A19 also liver and lungs
rats [5] = conditions: cited from earlier work
brain GS [6] = target: T2, brain GS (Mus musculus, UniProt P15105); conditions: i.p. 7 days
GS [7] = target: T3, GS (Mus musculus, UniProt P15105); format: in vivo, BALB/c mice; parameters: from tissue; host or cells: mouse brain (whole brain, cortex, hippocampus, thalamus/hypothalamus); conditions: 24 h after single i.p.; NF 10 and 100 mg/kg, GF 1 mg/kg
Protocol: Cortex, hippocampi and thalamus/hypothalamus were carefully isolated immediately after euthanasia. Membranes were prepared and the activity of GS determined in these different structures (as mentioned above for the whole brain).

[8] = Adrenal weight in corticosterone-administered rats; format: in vivo, Wistar rats; conditions: 21 days, versus PCB
dogs = conditions: based on decreased body weight at higher doses; cited from earlier work
GS [9] = conditions: literature (Meister 1985; Eisenberg et al., 2000); cited from earlier work
mice [10] = conditions: cited from earlier work
GS [11] = conditions: rat, in vivo
[12] = test system: glucocorticoid receptor (GR); assay: Brain glucocorticoid receptor expression by ELISA in corticosterone-administered rats; format: in vivo, Wistar rats; conditions: for brain GR expression: GF 0.1 and 3 mg/kg, MS 0.5, 15 and 45 mg/kg, tianeptine 0.5 mg/kg, versus PCB
Wistar rats [13] = assay: PTZ-induced seizures; format: in vivo
CA3 pyramidal neurons = assay: Surface of CA3 pyramidal neurons (Golgi) in corticosterone-administered rats; format: in vivo, Wistar rats; conditions: 21 days
Wistar rats [14] = assay: Forced swimming test in corticosterone-administered rats; format: in vivo
rats [15] = conditions: rat, in vivo; cited from earlier work; remark: listed apart in the source
[16] = Adrenal weight of rats administered methylprednisolone; format: in vivo, Wistar rats
Protocol: Wistar rats were administered during 21 days once a day with methyprednisolone (5 mg/kg i.p.) plus GF (0.001, 0.01, 0.1 mg/kg), NF (1 and 10 mg/kg) or vehicle (PCB; i.p). Twenty-four hours after the last administrations, they were euthanatized. A complete necropsy was performed and main organs weighted.

pathogenic mycobacteria = conditions: cited from earlier work
GS [17] = target: T3, GS; conditions: 24 h after single i.p.
Wistar rats [18] = assay: Open field task in corticosterone-administered rats; format: in vivo; conditions: for resting time in the open field task: day 15, corticosterone 35 mg/kg s.c., versus PCB and Control
rabbits = conditions: rabbit, in vivo; cited from earlier work
[19] = in vivo, cited from earlier work
GS [20] = target: T1, GS; conditions: for lung GS activity: versus PCB
mice [21] = conditions: cited from earlier work; remark: listed apart in the source
brain GS [22] = target: T2, brain GS; conditions: 24 h after single i.p.
M. tuberculosis = conditions: MS with isoniazid (INH); cited from earlier work
rat lung GS protein = conditions: cited from earlier work
bacterial GS = bacterial GS (Mycobacterium tuberculosis, UniProt P9WN39); conditions: cited from earlier work
purified sheep brain GS [23] = conditions: Rueppel et al., 1972; cited from earlier work
[24] = GF 3 mg/kg, tianeptine 15 mg/kg
[25] = day 19, corticosterone 35 mg/kg s.c., versus PCB and Control
[26] = 21 days, versus PCB and Control

T3 sequence (P15105 2-373 limits assumed): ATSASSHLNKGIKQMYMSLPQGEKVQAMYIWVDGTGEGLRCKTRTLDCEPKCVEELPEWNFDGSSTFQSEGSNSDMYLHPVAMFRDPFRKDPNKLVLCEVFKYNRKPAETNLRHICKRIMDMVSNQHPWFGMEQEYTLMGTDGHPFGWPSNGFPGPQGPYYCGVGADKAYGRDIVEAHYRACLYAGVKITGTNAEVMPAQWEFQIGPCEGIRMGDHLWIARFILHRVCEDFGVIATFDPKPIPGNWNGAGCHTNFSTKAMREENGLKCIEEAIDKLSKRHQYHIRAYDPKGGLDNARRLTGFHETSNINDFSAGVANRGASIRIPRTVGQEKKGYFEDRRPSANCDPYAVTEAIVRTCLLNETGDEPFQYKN
T2 sequence (P15105 2-373 limits assumed): as above
T1 sequence (P09606 2-373 limits assumed): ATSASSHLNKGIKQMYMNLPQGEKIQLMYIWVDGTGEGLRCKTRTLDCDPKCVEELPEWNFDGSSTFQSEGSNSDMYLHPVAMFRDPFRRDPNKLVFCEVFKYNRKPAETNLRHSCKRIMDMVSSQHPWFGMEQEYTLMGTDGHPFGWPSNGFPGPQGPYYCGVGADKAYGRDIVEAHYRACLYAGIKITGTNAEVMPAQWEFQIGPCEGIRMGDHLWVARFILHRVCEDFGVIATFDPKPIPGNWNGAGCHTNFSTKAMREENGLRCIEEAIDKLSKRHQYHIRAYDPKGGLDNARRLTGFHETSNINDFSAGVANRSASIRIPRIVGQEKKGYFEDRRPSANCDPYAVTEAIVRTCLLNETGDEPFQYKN
Chain of bacterial GS (P9WN39 whole entry): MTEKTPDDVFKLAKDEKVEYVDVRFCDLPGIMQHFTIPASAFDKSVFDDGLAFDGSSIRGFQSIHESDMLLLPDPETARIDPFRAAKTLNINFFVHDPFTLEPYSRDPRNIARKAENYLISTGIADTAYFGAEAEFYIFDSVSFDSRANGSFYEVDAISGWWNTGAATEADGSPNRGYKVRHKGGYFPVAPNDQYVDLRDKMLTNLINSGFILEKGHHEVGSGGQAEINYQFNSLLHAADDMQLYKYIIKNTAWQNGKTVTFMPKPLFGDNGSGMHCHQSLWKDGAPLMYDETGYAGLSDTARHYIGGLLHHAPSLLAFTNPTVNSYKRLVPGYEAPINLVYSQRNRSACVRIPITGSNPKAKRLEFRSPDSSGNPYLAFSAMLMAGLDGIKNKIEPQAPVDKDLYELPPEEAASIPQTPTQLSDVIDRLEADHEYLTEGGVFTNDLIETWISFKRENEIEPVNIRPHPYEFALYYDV

For `CP(=O)(O)CCC(N)C(=O)O` (racemic) [GF, ammonium 4-[hydroxy (methyl)phosphinoyl]-DL-homoalaninate], the “GS activity in the cortex” value (GS [1]) was “Trend to an Decrease”, the “GS activity in the hippocampus” value (GS [1]) was “Increase of GS Activity” and the “GS activity in the thalamus/hypothalamus” value (GS [1]; 1 h and 24 h after last administration) was “Decreased GS Activity”. For the same molecule, the type of competition (purified sheep brain GS [2]) was “competitive with L-glutamine”, the “effect on GS activity at “high” concentrations” value (purified sheep brain GS [2]; in absence of 2βME) was “inhibit GS activity at “high” concentrations” and the ““low concentrations” that activate GS activity” value (purified sheep brain GS [2]; in absence of 2βME) was 10^−4 to 10^−11 M. For the same molecule, the “effect on GS subunit (monomer) activity” value (purified sheep brain GS [2]) was “inhibit GS activity at “high” concentrations”, the “dose levels with effects on kidney weight” value (rats [3]) was at least 0.52 mg/kg bw/day and the “GS activity in the cortex, hippocampus and thalamus/hypothalamus” value (GS [4]; one hour after PTZ administration) was “increased GS activity”. The “dose relation of the effects on GS activity” value (GS [4]; rat, in vivo) was “not proportional to the dose”, the NOAEL (rats [5]; increased kidney weight at 140 ppm) was 40 ppm and the NOAEL (rats [5]; rat, in vivo) was 2.1 mg/kg bw/day. The carcinogenicity (rats [5]; rat, in vivo) was “not carcinogenic”, the “brain GS expression” value (brain GS [6]; [24]) was “increased also GS expression” and the “whole brain GS activity” value (brain GS [6]; [24]) was “increase GS activity”. For the same molecule, the “dose relation of effects on GS activity and GS expression” value (from here on “dose relation of effects”) (brain GS [6]) was “dose-dependent”, the “whole brain GS activity at higher doses” value (brain GS [6]; doses above GF 3 mg/kg, tianeptine 15 mg/kg) was “decreased GS activity” and the “GS activity in the thalamus/hypothalamus” value (GS [7]) was “decreased”. The adrenal weight [8] was “higher”, the NOAEL (dogs) was 4.5 mg/kg bw/day and the “nature of the binding to GS” value (GS [9]) was “selective, irreversible GS ligand; also recorded: bind GS irreversibly”. The NOAEL (mice [10]; increased mortality at higher dietary concentrations) was 80 ppm, the NOAEL (mice [10]; mouse, in vivo) was 11 mg/kg bw/day and the carcinogenicity (mice [10]; mouse, in vivo) was “not carcinogenic”. For the same molecule, the “brain GS expression” value (GS [11]) was “higher”, the “brain GR expression” value [12] was “higher” and the “seizure occurrence after PTZ administration” value (Wistar rats [13]; GF 0.5, 5, 25 mg/kg, tianeptine 1, 10, 50 mg/kg i.p. 1 h before PTZ 50 mg/kg i.p.) was “decreased seizure occurrence”. The “dose relation of the effect on seizures” value (Wistar rats [13]; rat, in vivo) was “not dose-dependent”, the “effects of corticosterone on CA3 pyramidal neurons” value (CA3 pyramidal neurons; GF 15 mg/kg) was “failed to blunt the effects of corticosterone” and the “effects of corticosterone on CA3 pyramidal neurons” value (CA3 pyramidal neurons; GF 0.1 and 3 mg/kg) was “prevent in part the deleterious effects of corticosterone”. The “immobility in the forced swimming test” value (Wistar rats [14]; GF 0.1 mg/kg, tianeptine 0.5 mg/kg) was “clear decrease in immobility”, the “immobility in the forced swimming test” value (Wistar rats [14]; [25]) was “comparable or lower” and the “NOAEL for maternal and embryo/fetal toxicity” value (rats [15]) was 2.2 mg/kg bw/day. The teratogenicity (rats [15]) was “not teratogenic”, the methylprednisolone-induced adrenal atrophy ([16]; GF 0.001 mg/kg) was “fully prevented” and the adrenal weight ([16]; GF 0.001, 0.01, 0.1 mg/kg, NF 1 and 10 mg/kg, methyprednisolone 5 mg/kg i.p., 21 days, versus PCB) was “higher”. For the same molecule, the “dose relation of the effect on adrenal weight” value ([16]; rat, in vivo) was “non dose-dependent effect”, the “effect on mycobacterium growth” value (pathogenic mycobacteria) was “only a very minor inhibitory effect” and the “GS activity in the hippocampus” value (GS [17]) was “dose-dependently increased GS activity”. The “GS activity in the thalamus/hypothalamus” value (GS [17]) was “decreased GS activity”, the “GS activity in the cortex” value (GS [17]; GF 0.1, 3, 15 mg/kg, tianeptine 0.5, 15, 45 mg/kg) was “no significant effect” and the “resting time in the open field task” value (Wistar rats [18]) was “higher”. For the same molecule, the “NOAEL for maternal and embryo/fetal toxicity” value (rabbits) was 6.3 mg/kg bw/day, the teratogenicity (rabbits) was “not teratogenic” and the “part of an oral dose eliminated in the urine” value ([19]; po) was 10-15%. For the same molecule, the “main metabolite found in urine and in faeces” value [19] was 3-[hydroxy(methyl)phosphinoyl] propionic acid, the “lung GS activity” value (GS [20]; 21 days, most rats) was “decrease in lung GS activity” and the “brain GS activity” value (GS [20]; [26]) was “dose-dependent decrease”. The “liver GS activity” value (GS [20]; [26]) was “clear decrease”, the “lung GS activity” value (GS [20]; [24]) was “remained in the same range” and the NOAEL (mice [21]; based upon increased plasma potassium at next highest dose) was 80 ppm. The NOAEL (mice [21]; females) was 19 mg/kg bw/day and the NOAEL (mice [21]; males) was 17 mg/kg bw/day.
In the case of `CS(=N)(=O)CC[C@H](N)C(=O)O` (stereo partly drawn) [MS, 2-amino-4-(S-methylsulfonimidosyl)butanoic acid], the type of competition (purified sheep brain GS [2]) is reported as “competitive with L-glutamine”, the “effect on GS subunit (monomer) activity” value (purified sheep brain GS [2]) is reported as “inhibit GS activity at “high” concentrations” and the “whole brain GS activity” value (brain GS [6]; MS 0.5, 15, 45 mg/kg) is reported as “decreased GS activity proportionally the dose”. The “dose relation of effects” value (brain GS [6]) was “dose-dependent”, the adrenal weight [8] was “higher” and the “nature of the binding to GS” value (GS [9]) was “non-selective, irreversible GS ligand; also recorded: bind GS irreversibly”. The “brain GS expression” value (GS [11]) was “higher”, the “brain GR expression” value [12] was “higher” and the “dose relation of the increase in GR expression” value ([12]; rat, in vivo) was “proportional to the dose”. The “dose with the best protective effects on CA3 pyramidal neurons” value (CA3 pyramidal neurons) was 15 mg/kg, the “immobility in the forced swimming test” value (Wistar rats [14]; [25]) was “comparable or lower” and the “effect on mycobacterium growth” value (pathogenic mycobacteria) was “block the growth”. For the same molecule, the “dose relation of effects” value (brain GS [22]) was “dose-dependent”, the “dose with the highest GS activity” value (brain GS [22]) was 0.312 mg/kg and the “whole brain GS activity” value (brain GS [22]; 0.078-20 mg/kg) was “increase GS activity”. For the same molecule, the “reduction of CFU in guinea pig organs below the level attained with INH alone” value (M. tuberculosis) was about 1.5 log units, the “dose relation of the increase in resting time” value (Wistar rats [18]; day 15) was “proportional to the dose” and the “resting time in the open field task” value (Wistar rats [18]) was “higher”. For the same molecule, the “augmentation of rat lung GS protein levels” value (rat lung GS protein; MS 100 mg/kg) was 4 fold, the “augmentation of rat lung GS protein levels” value (rat lung GS protein; combination MS 100 mg/kg and dexamethasone 0.5 mg/kg) was 12 fold and the “lung GS activity” value (GS [20]; 21 days, most rats) was “decrease in lung GS activity”. For the same molecule, the “brain GS activity” value (GS [20]; [26]) was “dose-dependent decrease”, the “liver GS activity” value (GS [20]; [26]) was “clear decrease” and the “brain GS activity” value (GS [20]; MS at the and 45 mg/kg doses) was “lowest GS activities”. The “greater sensitivity to MS of bacterial GS than of mammalian GS” value (bacterial GS) was 100 fold.
For `CC(C)NNC(=O)c1ccncc1` [iproniazid, Iproniazid], the “tested on GS activity: ligand or not” value (purified sheep brain GS [2]) is listed as “GS ligands”, the “effect on GS subunit (monomer) activity” value (purified sheep brain GS [2]) is listed as “inhibit GS activity at “high” concentrations” and the type of competition (purified sheep brain GS [23]) is listed as “competes with hydroxylamine on the NH4 site”.
